Source: BindingDB's records for doi:10.1021/jm00035a014 (University of Paris, 1994)

Each compound was assayed against Aminopeptidase N (Sus scrofa) (UniProt P15145) (assay: Inhibitory potency against aminopeptidase N (APN)).
Chain of Aminopeptidase N (Sus scrofa) (P15145 whole entry, looked up): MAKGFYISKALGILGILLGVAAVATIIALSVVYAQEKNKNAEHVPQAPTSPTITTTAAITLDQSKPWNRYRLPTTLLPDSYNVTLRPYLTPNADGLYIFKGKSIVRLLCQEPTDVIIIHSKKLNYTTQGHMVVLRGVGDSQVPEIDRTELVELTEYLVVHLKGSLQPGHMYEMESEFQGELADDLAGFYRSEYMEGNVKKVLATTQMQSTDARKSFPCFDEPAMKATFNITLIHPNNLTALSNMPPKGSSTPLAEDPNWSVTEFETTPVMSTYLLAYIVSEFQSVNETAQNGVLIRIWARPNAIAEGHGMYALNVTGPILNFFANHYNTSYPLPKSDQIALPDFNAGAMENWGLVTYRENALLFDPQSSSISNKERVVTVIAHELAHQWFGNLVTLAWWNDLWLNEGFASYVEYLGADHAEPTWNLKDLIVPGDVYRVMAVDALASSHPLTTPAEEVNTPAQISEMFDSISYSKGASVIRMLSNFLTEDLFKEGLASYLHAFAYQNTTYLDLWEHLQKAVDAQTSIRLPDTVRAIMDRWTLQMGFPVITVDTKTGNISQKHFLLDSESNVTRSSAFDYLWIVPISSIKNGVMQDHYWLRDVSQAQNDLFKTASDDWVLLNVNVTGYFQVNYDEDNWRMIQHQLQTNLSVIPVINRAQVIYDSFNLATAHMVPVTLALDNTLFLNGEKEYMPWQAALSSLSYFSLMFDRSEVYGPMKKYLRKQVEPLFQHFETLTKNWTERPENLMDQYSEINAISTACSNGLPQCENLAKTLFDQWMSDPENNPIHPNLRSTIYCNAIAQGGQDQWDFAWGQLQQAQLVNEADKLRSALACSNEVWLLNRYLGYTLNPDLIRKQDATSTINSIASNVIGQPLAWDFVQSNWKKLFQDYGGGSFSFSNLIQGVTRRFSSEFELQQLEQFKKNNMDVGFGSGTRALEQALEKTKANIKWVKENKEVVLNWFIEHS
For `NC(CC(=O)O)Cc1ccccc1` (configuration not stated) [3-Amino-4-phenyl-butyric acid], the IC50 was 800000 nM.
For `NC(Cc1ccccc1)CP(=O)(O)O` (configuration not stated) [1-Benzyl-2-phosphono-ethyl-ammonium], the IC50 was 500000 nM.

These compounds were tested against Glutamyl aminopeptidase (Oryctolagus cuniculus) (assay: Inhibition of aminopeptidase A (APA)).
For `N[C@@H](CS)CCC(=O)O` [(R)-4-Amino-5-mercapto-pentanoic acid], the Ki was 2300 nM.
For `NC(CS)CC1CCC(CC(=O)O)CC1` (configuration not stated) [[4-(2-Amino-3-mercapto-propyl)-cyclohexyl]-acetic acid], the Ki was 2800 nM.
For `NC(CS)CC1CCC(C(=O)O)CC1` (configuration not stated) [4-(2-Amino-3-mercapto-propyl)-cyclohexanecarboxylic acid], the Ki was 1900 nM.
`NC(CS)c1ccc(C(=O)O)cc1` (configuration not stated) [4-(1-Amino-2-mercapto-ethyl)-benzoic acid] showed a Ki greater than 3000 nM.
Work on `NC(CS)Cc1cccc(C(=O)O)c1` (configuration not stated) [3-(2-Amino-3-mercapto-propyl)-benzoic acid] yielded a Ki of 840 nM.
With `N[C@H](CCS)CCC(=O)O` [(S)-4-Amino-6-mercapto-hexanoic acid] the Ki was 2000 nM.
In the case of `NC(CS)c1cccc(C(=O)O)c1` (configuration not stated) [1-(3-Carboxy-phenyl)-2-mercapto-ethyl-ammonium], the Ki is reported as 2400 nM.
In the case of `NC(CS)Cc1ccc(CC(=O)O)cc1` (configuration not stated) [[4-(2-Amino-3-mercapto-propyl)-phenyl]-acetic acid], the Ki is reported as 2200 nM.
For `NC(CS)CC1CCCC(C(=O)O)C1` (configuration not stated) [2-(3-Carboxy-cyclohexyl)-1-mercaptomethyl-ethyl-ammonium], the Ki was greater than 3000 nM.
`NC(CS)Cc1ccc(C(=O)O)cc1` (configuration not stated) [2-(4-Carboxy-phenyl)-1-mercaptomethyl-ethyl-ammonium] was tested, and the Ki was 2700 nM.
